Reference: US10294202B2, “Pyrrolidinones as herbicides” (FMC Corporation, priority 2013, dated 2019)

How the values were obtained:
barnyardgrass [1] = assay: Test A pre-/postemergence herbicide test; format: in vivo, Echinochloa crus-galli
In short: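 Planted in loam–sand blend; treated the same day preemergence by directed soil spray, while separately grown plants at one- to two-leaf stage got postemergence spray. Compared visually with untreated controls after approximately 10 days; 100 means complete control.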

sedge, umbrella = assay: Test B flooded paddy test; format: in vivo, Cyperus difformis; details: 500 g ai/ha, Flood; scale of 0 to 100 where 0 is no effect and 100 is complete control
In short: (§1)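 2-leaf plants; flood 3 cm over soil; compound into paddy water; depth held. Greenhouse 13–15 d. Visual rating vs controls, 0 (no effect) to 100 (complete control); dash = not tested.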

barnyardgrass [2] = assay: Test B flooded paddy test; format: in vivo, Echinochloa crus-galli; details: 500 g ai/ha, Flood; scale of 0 to 100 where 0 is no effect and 100 is complete control
In short: as §1

blackgrass = assay: Test C pre-/postemergence herbicide test; format: in vivo, Alopecurus myosuroides; details: Preemergence; for Plant response rating (scale of 0 to 100), Blackgrass: 250 g ai/ha
Description: (§2) Seeds of plant species selected from blackgrass (Alopecurus myosuroides), ryegrass, Italian (Italian ryegrass, Lolium multiflorum), wheat (winter wheat, Triticum aestivum), galium (catchweed bedstraw, Galium aparine), corn (Zea mays), crabgrass, large (large crabgrass, Digitaria sanguinalis), foxtail, giant (giant foxtail, Setaria faberii), johnsongrass (Sorghum halepense), lambsquarters (Chenopodium album), morningglory (Ipomoea coccinea), nutsedge, yellow (yellow nutsedge, Cyperus esculentus), pigweed (Amaranthus retroflexus), ragweed (common ragweed, Ambrosia elatior), soybean (Glycine max), barnyardgrass (Echinochloa crus-galli), oilseed rape (Brassica napus), waterhemp (common waterhemp, Amaranthus rudis), kochia (Kochia scoparia), oat, wild (wild oat, Avena fatua), surinam grass (Brachiaria decumbens), foxtail, green (green foxtail, Setaria viridis), goosegrass (Eleusine indica), bromegrass, downy (downy bromegrass, Bromus tectorum), nightshade (eastern black nightshade, Solanum ptycanthum), cocklebur (common cocklebur, Xanthium strumarium), cupgrass, woolly (woolly cupgrass, Eriochloa villosa), bermudagrass (Cynodon dactylon), sunflower, (common oilseed sunflower, Helianthus annuus), Russian thistle (Salsola kali) and velvetleaf (Abutilon theophrasti) were planted into a blend of loam soil and sand and treated preemergence with test chemicals formulated in a non-phytotoxic solvent mixture which included a surfactant. At the same time, plants selected from these crop and weed species and also barley (winter barley, Hordeum vulgare), […]), chickweed (common chickweed, Stellaria media), deadnettle (henbit deadnettle, Lamium amplexicaule), and canarygrass (littleseed canarygrass, Phalaris minor) were planted in pots containing Redi-Earth® planting medium (Scotts Company, 14111 Scottslawn Road, Marysville, Ohio 43041) comprising spaghnum peat moss, vermiculite, wetting agent and starter nutrients and treated with postemergence applications of test chemicals formulated in the same manner. Plants ranged in height from 2 to 18 cm (1- to 4-leaf stage) for postemergence treatments. Treated plants and controls were maintained in a greenhouse for 13 to 15 days, after which time all species were compared to controls and visually evaluated. Plant response ratings, summarized in Table C, are based on a scale of 0 to 100 where 0 is no effect and 100 is complete control. A dash (-) response means no test result.

wheat (winter wheat) = assay: Test C pre-/postemergence herbicide test; format: in vivo, Triticum aestivum; details: Preemergence; for Plant response rating (scale of 0 to 100), Wheat: 250 g ai/ha
Description: as §2

corn = assay: Test C pre-/postemergence herbicide test; format: in vivo, Zea mays; details: Preemergence; for Plant response rating (scale of 0 to 100), Corn: 250 g ai/ha
Description: as §2

crabgrass, large = assay: Test C pre-/postemergence herbicide test; format: in vivo, Digitaria sanguinalis; details: Preemergence; for Plant response rating (scale of 0 to 100), Crabgrass, Large: 250 g ai/ha
Description: as §2

lambsquarters = assay: Test C pre-/postemergence herbicide test; format: in vivo, Chenopodium album; details: Preemergence; for Plant response rating, Lambsquarters: 125 g ai/ha; for Plant response rating (scale of 0 to 100), Lambsquarters: 250 g ai/ha
Description: as §2

soybean = assay: Test C pre-/postemergence herbicide test; format: in vivo, Glycine max; details: Preemergence; for Plant response rating (scale of 0 to 100), Soybean: 250 g ai/ha
In short: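 Test compounds, formulated in a surfactant-containing non-phytotoxic solvent blend, are applied to seeded loam/sand soil (preemergence) and to young plants at the 1- to 4-leaf stage in peat-based medium (postemergence). Plants stay 13 to 15 days under greenhouse conditions, then are scored visually relative to controls, 0 = no effect, 100 = complete control.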

velvetleaf = assay: Test C pre-/postemergence herbicide test; format: in vivo, Abutilon theophrasti; details: Preemergence; for Plant response rating (scale of 0 to 100), Velvetleaf: 250 g ai/ha
Description: as §2

[3] = Postemergence, 500 g ai/ha, 0 to 100 scale (0 no effect, 100 complete control)
[4] = Preemergence, 125 g ai/ha, 0 to 100 scale where 0 is no effect and 100 is complete control
[5] = 62 g ai/ha, scale 0 to 100 (0 no effect, 100 complete control)
[6] = 125 g ai/ha, visual rating, 0 to 100 scale, 0 no effect, 100 complete control, approximately 10 days, preemergence
[7] = Postemergence, 125 g ai/ha, 0 to 100 scale, 0 is no effect, 100 is complete control
[8] = preemergence, 500 g ai/ha, 0 to 100 scale, 0 is no effect and 100 is complete control
[9] = 31 g ai/ha, scale 0 to 100, 0 is no effect and 100 is complete control
[10] = 125 g ai/ha, scale 0 to 100 (0 no effect, 100 complete control)
[11] = scale 0 to 100 (0 no effect, 100 complete control)

O=C1NCC(c2ccc(OC(F)F)cc2)C1C(=O)Nc1cccc(F)c1F (racemic) [Compound 350]
Plant response rating, Barnyardgrass (barnyardgrass [1]; Postemergence, 125 g ai/ha, visual rating on 0 to 100 scale (0 no effect, 100 complete control), approx. 10 days): 70
Plant response rating, Barnyardgrass (barnyardgrass [1]; [3]): 90
Plant response rating, Barnyardgrass (barnyardgrass [1]; [4]): 90
Barnyardgrass plant response rating (barnyardgrass [1]; Preemergence, 500 g ai/ha, visual rating on 0 to 100 scale (0 no effect, 100 complete control)): 90
Plant response rating, Sedge, Umbrella (sedge, umbrella): 0
Plant response rating, Barnyardgrass (barnyardgrass [2]): 60
Blackgrass plant response rating (blackgrass; [5]): 0
Plant response rating, Blackgrass (blackgrass; 125 g ai/ha, scale 0 to 100): 50
Plant response rating (scale of 0 to 100), Blackgrass (blackgrass): 55
Plant response rating, Blackgrass (blackgrass; 31 g ai/ha, scale 0 to 100): 0
Wheat plant response rating (wheat (winter wheat); [5]): 0
Plant response rating, Wheat (wheat (winter wheat); 125 g ai/ha, scale 0 to 100): 0
Plant response rating, Wheat (wheat (winter wheat); 31 g ai/ha, scale 0 to 100): 0
Corn plant response rating (corn; [5]): 0
Plant response rating, Corn (corn; 125 g ai/ha, scale 0 to 100): 5
Plant response rating (scale of 0 to 100), Corn (corn): 40
Plant response rating, Corn (corn; 31 g ai/ha, scale 0 to 100): 0
Crabgrass, Large plant response rating (crabgrass, large; [5]): 90
Plant response rating, Crabgrass, Large (crabgrass, large; 125 g ai/ha, scale 0 to 100): 90
Plant response rating (scale of 0 to 100), Crabgrass, Large (crabgrass, large): 90
Plant response rating, Crabgrass, Large (crabgrass, large; 31 g ai/ha, scale 0 to 100): 90
Lambsquarters plant response rating (lambsquarters; [5]): 90
Plant response rating, Lambsquarters (lambsquarters; scale 0 to 100): 90
Plant response rating (scale of 0 to 100), Lambsquarters (lambsquarters): 90
Soybean plant response rating (soybean; [5]): 0
Plant response rating, Soybean (soybean; 125 g ai/ha, scale 0 to 100): 0
Plant response rating, Soybean (soybean; 31 g ai/ha, scale 0 to 100): 0
Velvetleaf plant response rating (velvetleaf; [5]): 0
Plant response rating, Velvetleaf (velvetleaf; 125 g ai/ha, scale 0 to 100): 0
Plant response rating, Velvetleaf (velvetleaf; 31 g ai/ha, scale 0 to 100): 0

O=C1NCC(c2ccc(C(F)(F)F)cc2)C1C(=O)Nc1ccccc1F (centres unmarked) [Compound 231]
Plant response rating, Barnyardgrass (barnyardgrass [1]; [6]): 90
Plant response rating, Barnyardgrass (barnyardgrass [1]; [7]): 80
Barnyardgrass plant response rating (0 to 100 scale, 0 is no effect, 100 is complete control) (barnyardgrass [1]; Postemergence, 500 g ai/ha): 90
Plant response rating, Barnyardgrass (barnyardgrass [1]; [8]): 90
Plant response rating, Sedge, Umbrella (sedge, umbrella): 0
Plant response rating, Barnyardgrass (barnyardgrass [2]): 0
Blackgrass plant response rating (blackgrass; [9]): 50
Plant response rating, Blackgrass (blackgrass; 62 g ai/ha, scale 0 to 100): 85
Plant response rating, Blackgrass (blackgrass; [10]): 85
Plant response rating (scale of 0 to 100), Blackgrass (blackgrass): 90
Wheat plant response rating (wheat (winter wheat); [9]): 0
Wheat plant response rating (wheat (winter wheat); [5]): 15
Plant response rating, Wheat (wheat (winter wheat); [10]): 20
Plant response rating (scale of 0 to 100), Wheat (wheat (winter wheat)): 80
Corn plant response rating (corn; [9]): 0
Corn plant response rating (corn; [5]): 5
Plant response rating, Corn (corn; [10]): 70
Plant response rating (scale of 0 to 100), Corn (corn): 85
Crabgrass, Large plant response rating (crabgrass, large; [9]): 90
Crabgrass, Large plant response rating (crabgrass, large; [5]): 95
Plant response rating, Crabgrass, Large (crabgrass, large; [10]): 100
Plant response rating (scale of 0 to 100), Crabgrass, Large (crabgrass, large): 100
Lambsquarters plant response rating (lambsquarters; [9]): 40
Lambsquarters plant response rating (lambsquarters; [5]): 85
Plant response rating, Lambsquarters (lambsquarters; [11]): 85
Plant response rating (scale of 0 to 100), Lambsquarters (lambsquarters): 100
Soybean plant response rating (soybean; [9]): 0
Soybean plant response rating (soybean; [5]): 0
Plant response rating, Soybean (soybean; [10]): 0
Plant response rating (scale of 0 to 100), Soybean (soybean): 5
Velvetleaf plant response rating (velvetleaf; [9]): 10
Velvetleaf plant response rating (velvetleaf; [5]): 25
Plant response rating, Velvetleaf (velvetleaf; [10]): 35
Plant response rating (scale of 0 to 100), Velvetleaf (velvetleaf): 60

O=C1NCC(c2cc(F)cc(F)c2)C1C(=O)Nc1ccccc1Cl (racemic) [Compound 280]
Plant response rating, Barnyardgrass (barnyardgrass [1]; [7]): 80
Plant response rating, Barnyardgrass (barnyardgrass [1]; [3]): 90
Plant response rating, Barnyardgrass (barnyardgrass [1]; [4]): 80
Plant response rating, Barnyardgrass (barnyardgrass [1]; [8]): 80
Plant response rating, Sedge, Umbrella (sedge, umbrella): 0
Plant response rating, Barnyardgrass (barnyardgrass [2]): 65
Blackgrass plant response rating (blackgrass; [9]): 0
Blackgrass plant response rating (blackgrass; [5]): 0
Plant response rating, Blackgrass (blackgrass; [10]): 0
Plant response rating (scale of 0 to 100), Blackgrass (blackgrass): 0
Wheat plant response rating (wheat (winter wheat); [9]): 0
Wheat plant response rating (wheat (winter wheat); [5]): 0
Plant response rating (scale of 0 to 100), Wheat (wheat (winter wheat)): 0
Corn plant response rating (corn; [9]): 0
Corn plant response rating (corn; [5]): 0
Plant response rating, Corn (corn; [10]): 0
Plant response rating (scale of 0 to 100), Corn (corn): 5
Crabgrass, Large plant response rating (crabgrass, large; [9]): 85
Crabgrass, Large plant response rating (crabgrass, large; [5]): 90
Plant response rating, Crabgrass, Large (crabgrass, large; [10]): 95
Plant response rating (scale of 0 to 100), Crabgrass, Large (crabgrass, large): 100
Lambsquarters plant response rating (lambsquarters; [9]): 0
Lambsquarters plant response rating (lambsquarters; [5]): 0
Plant response rating, Lambsquarters (lambsquarters; [11]): 10
Plant response rating (scale of 0 to 100), Lambsquarters (lambsquarters): 10
Soybean plant response rating (soybean; [9]): 0
Soybean plant response rating (soybean; [5]): 5
Plant response rating, Soybean (soybean; [10]): 0
Plant response rating (scale of 0 to 100), Soybean (soybean): 0
Velvetleaf plant response rating (velvetleaf; [9]): 0
Velvetleaf plant response rating (velvetleaf; [5]): 0
Plant response rating, Velvetleaf (velvetleaf; [10]): 0
Plant response rating (scale of 0 to 100), Velvetleaf (velvetleaf): 10

O=C1NCC(c2ccc(Cl)cc2)C1C(=O)Nc1cccc(F)c1F (centres unmarked) [Compound 218]
Plant response rating, Barnyardgrass (barnyardgrass [1]; [6]): 80
Plant response rating, Barnyardgrass (barnyardgrass [1]; [7]): 60
Barnyardgrass plant response rating (0 to 100 scale, 0 is no effect, 100 is complete control) (barnyardgrass [1]; Postemergence, 500 g ai/ha): 90
Plant response rating, Barnyardgrass (barnyardgrass [1]; [8]): 90
Plant response rating, Sedge, Umbrella (sedge, umbrella): 0
Plant response rating, Barnyardgrass (barnyardgrass [2]): 70
Blackgrass plant response rating (blackgrass; [9]): 0
Plant response rating, Blackgrass (blackgrass; 62 g ai/ha, scale 0 to 100): 10
Plant response rating, Blackgrass (blackgrass; [10]): 50
Plant response rating (scale of 0 to 100), Blackgrass (blackgrass): 80
Wheat plant response rating (wheat (winter wheat); [9]): 0
Wheat plant response rating (wheat (winter wheat); [5]): 0
Plant response rating, Wheat (wheat (winter wheat); [10]): 0
Plant response rating (scale of 0 to 100), Wheat (wheat (winter wheat)): 10
Corn plant response rating (corn; [9]): 0
Corn plant response rating (corn; [5]): 0
Plant response rating, Corn (corn; [10]): 0
Plant response rating (scale of 0 to 100), Corn (corn): 0
Crabgrass, Large plant response rating (crabgrass, large; [9]): 90
Crabgrass, Large plant response rating (crabgrass, large; [5]): 90
Plant response rating, Crabgrass, Large (crabgrass, large; [10]): 100
Plant response rating (scale of 0 to 100), Crabgrass, Large (crabgrass, large): 100
Lambsquarters plant response rating (lambsquarters; [9]): 10
Lambsquarters plant response rating (lambsquarters; [5]): 40
Plant response rating, Lambsquarters (lambsquarters; [11]): 75
Plant response rating (scale of 0 to 100), Lambsquarters (lambsquarters): 85
Soybean plant response rating (soybean; [9]): 0
Soybean plant response rating (soybean; [5]): 5
Plant response rating, Soybean (soybean; [10]): 40
Plant response rating (scale of 0 to 100), Soybean (soybean): 20
Velvetleaf plant response rating (velvetleaf; [9]): 0
Velvetleaf plant response rating (velvetleaf; [5]): 0
Plant response rating, Velvetleaf (velvetleaf; [10]): 15
Plant response rating (scale of 0 to 100), Velvetleaf (velvetleaf): 40
